Data as given in ChEMBL document CHEMBL1201862, “PubChem BioAssay data set” (2004).
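Growth conditions: 96-well plates. Treatment: test compound, 48 hours, 5 concentrations. Analysis: linear interpolation between bracketing concentrations; unreached endpoints set to highest concentration. The concentration for 50% growth inhibition is given as GI50.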 Activity calls are given as the source filed them. Cut-off read from the data, not from the text of the source: active = GI50 up to about 1.1 µM and inactive = higher.

Assays:
Assay in all cases: growth of human tumour cells (NCI), 48 h
[1] = system: 786-0
[2] = system: A498
[3] = system: A549
[4] = system: ACHN
[5] = system: BT-549
[6] = system: CAKI-1
[7] = system: CCRF-CEM
[8] = system: DU-145
[9] = system: EKVX
[10] = system: HCC 2998
[11] = system: HCT-116
[12] = system: HCT-15
[13] = system: HL-60
[14] = system: HOP-62
[15] = system: HOP-92
[16] = system: HT-29
[17] = system: Hs-578T
[18] = system: IGROV-1
[19] = system: K562
[20] = system: KM12
[21] = system: LOX IMVI
[22] = system: M14
[23] = system: MCF7
[24] = system: MDA-MB-231
[25] = system: MDA-MB-435
[26] = system: MDA-N
[27] = system: MOLT-4
[28] = system: Malme-3M
[29] = system: NCI-H226
[30] = system: NCI-H23
[31] = system: NCI-H460
[32] = system: NCI-H522
[33] = system: NCI/ADR-RES
[34] = system: OVCAR-3
[35] = system: OVCAR-5
[36] = system: OVCAR-8
[37] = system: PC-3
[38] = system: RPMI-8226
[39] = system: RXF 393
[40] = system: SF-268
[41] = system: SF-295
[42] = system: SF-539
[43] = system: SK-MEL-28
[44] = system: SK-MEL-5
[45] = system: SN12C
[46] = system: SNB-19
[47] = system: SNB-75
[48] = system: SR
[49] = system: SW-620
[50] = system: T47D
[51] = system: TK-10
[52] = system: U-251
[53] = system: UACC-257
[54] = system: UO-31
[55] = system: COLO 205
[56] = system: OVCAR-4
[57] = system: SK-MEL-2
[58] = system: SK-OV-3
[59] = system: UACC-62

For `O=c1[nH]nc(-c2ccccc2)n1/N=C/c1cccnc1`, the GI50 [1] was > 100 µM (inactive), the GI50 [2] was 27 µM (inactive) and the GI50 [3] was > 100 µM (inactive). For the same compound, the GI50 [4] was 63.7 µM (inactive), the GI50 [5] was 39.2 µM (inactive) and the GI50 [6] was 25.1 µM (inactive). The GI50 [7] was 69.5 µM (inactive), the GI50 [8] was 78.5 µM (inactive) and the GI50 [9] was 71.1 µM (inactive). For the same compound, the GI50 [10] was 95.5 µM (inactive), the GI50 [11] was 54.3 µM (inactive) and the GI50 [12] was 61.1 µM. The GI50 [13] was 50.2 µM (inactive), the GI50 [14] was > 100 µM (inactive) and the GI50 [15] was 61.9 µM (inactive). For the same compound, the GI50 [16] was 93.1 µM (inactive), the GI50 [17] was 37.5 µM (inactive) and the GI50 [18] was > 100 µM (inactive). The GI50 [19] was 40.5 µM (inactive), the GI50 [20] was 23.4 µM (inactive) and the GI50 [21] was > 100 µM (inactive). The GI50 [22] was > 100 µM (inactive), the GI50 [23] was 47.1 µM (inactive) and the GI50 [24] was 48.8 µM (inactive). The GI50 [25] was 64.7 µM (inactive), the GI50 [26] was 34.9 µM (inactive) and the GI50 [27] was 64 µM (inactive). The GI50 [28] was > 100 µM (inactive), the GI50 [29] was 57.9 µM (inactive) and the GI50 [30] was > 100 µM (inactive). The GI50 [31] was 43.8 µM (inactive), the GI50 [32] was 61.8 µM (inactive) and the GI50 [33] was 69.8 µM (inactive). The GI50 [34] was > 100 µM (inactive), the GI50 [35] was 92.5 µM (inactive) and the GI50 [36] was > 100 µM (inactive). The GI50 [37] was 52.2 µM (inactive), the GI50 [38] was 74 µM (inactive) and the GI50 [39] was 34.4 µM (inactive). The GI50 [40] was > 100 µM (inactive), the GI50 [41] was > 100 µM (inactive) and the GI50 [42] was 40.4 µM (inactive). The GI50 [43] was > 100 µM (inactive), the GI50 [44] was 57 µM (inactive) and the GI50 [45] was 65 µM (inactive). For the same compound, the GI50 [46] was > 100 µM (inactive), the GI50 [47] was 50.6 µM (inactive) and the GI50 [48] was 52.7 µM (inactive). The GI50 [49] was > 100 µM (inactive), the GI50 [50] was 31.6 µM (inactive) and the GI50 [51] was > 100 µM (inactive). For the same compound, the GI50 [52] was 76.4 µM (inactive), the GI50 [53] was > 100 µM (inactive) and the GI50 [54] was > 100 µM (inactive).
With `Cn1ccnc1Sc1ccc(/C=N/NC(=O)c2ccccc2O)cc1[N+](=O)[O-]` the GI50 [1] was 61.4 µM (inactive), the GI50 [2] was > 100 µM (inactive) and the GI50 [3] was > 100 µM (inactive). The GI50 [4] was > 100 µM (inactive), the GI50 [5] was 89.7 µM (inactive) and the GI50 [6] was 72.8 µM (inactive). For the same compound, the GI50 [7] was 37.6 µM (inactive), the GI50 [55] was 22.2 µM (inactive) and the GI50 [8] was > 100 µM (inactive). For the same compound, the GI50 [9] was 94 µM (inactive), the GI50 [10] was 96.4 µM (inactive) and the GI50 [11] was 70.1 µM (inactive). For the same compound, the GI50 [12] was 39.6 µM, the GI50 [13] was 44.9 µM (inactive) and the GI50 [14] was 73.6 µM (inactive). The GI50 [15] was > 100 µM (inactive), the GI50 [16] was 33.7 µM (inactive) and the GI50 [17] was 92.5 µM (inactive). The GI50 [18] was 35.1 µM (inactive), the GI50 [19] was 0.298 µM (active) and the GI50 [20] was > 100 µM (inactive). For the same compound, the GI50 [21] was 65.2 µM (inactive), the GI50 [22] was > 100 µM (inactive) and the GI50 [23] was 84.3 µM (inactive). The GI50 [24] was > 100 µM (inactive), the GI50 [25] was 57 µM (inactive) and the GI50 [26] was 61.5 µM (inactive). The GI50 [27] was 0.428 µM (active), the GI50 [28] was 40.9 µM (inactive) and the GI50 [29] was > 100 µM (inactive). The GI50 [30] was 56.9 µM (inactive), the GI50 [31] was 69.5 µM (inactive) and the GI50 [32] was 41.7 µM (inactive). For the same compound, the GI50 [33] was > 100 µM (inactive), the GI50 [34] was > 100 µM (inactive) and the GI50 [56] was 72.6 µM (inactive). The GI50 [35] was > 100 µM (inactive), the GI50 [36] was > 100 µM (inactive) and the GI50 [37] was 56.9 µM (inactive). The GI50 [38] was 0.0723 µM (active), the GI50 [39] was > 100 µM (inactive) and the GI50 [40] was 48.8 µM (inactive). For the same compound, the GI50 [41] was > 100 µM (inactive), the GI50 [42] was 60.7 µM (inactive) and the GI50 [43] was > 100 µM (inactive). For the same compound, the GI50 [57] was 37.8 µM (inactive), the GI50 [44] was 55.7 µM (inactive) and the GI50 [58] was > 100 µM (inactive). The GI50 [45] was 55 µM (inactive), the GI50 [46] was > 100 µM (inactive) and the GI50 [47] was > 100 µM (inactive). The GI50 [48] was 2.27 µM (inactive), the GI50 [49] was > 100 µM (inactive) and the GI50 [50] was 80.2 µM (inactive). For the same compound, the GI50 [51] was > 100 µM (inactive), the GI50 [52] was 66.4 µM (inactive) and the GI50 [53] was > 100 µM (inactive). For the same compound, the GI50 [59] was 86.1 µM (inactive) and the GI50 [54] was 79.1 µM (inactive).
